Patent publication US11944612B2, “Dosing regimens for 2-hydroxy-6-((2-(1-isopropyl-1H-pyrazol-5-yl)pyridin-3-yl)methoxy)benzaldehyde” (Global Blood Therapeutics, Inc., priority 2015, dated 2024)

What was measured:
[1] = Phase I study: whole blood and plasma pharmacokinetics of GBT440 (LC-MS-MS); format: in vivo, human; details: for half-life: human, whole blood, oral
Experimental: (§1) The following example presents a Phase I randomised, placebo-controlled, double-blind, single and multiple ascending dose study of the tolerability and pharmacokinetics of Compound 1 (GBT440) in healthy subjects and patients with Sickle Cell Disease.
(§2) Experimental: GBT440 • Subjects randomized 6:2 to receive daily oral dosing of GBT440 or placebo for 1 day (single dose) and up to 28 days (multiple dose)
Analysis of whole blood was performed as follows. 50 μL of diluted whole blood was mixed with 20 μL of GBT1592 (GBT440-D7) solution in acetonitrile. 0.3 mL of 0.1M citrate buffer solution (pH 3) was added to the sample, and the sample mixed briefly by vortexing, followed by sonication for 10 minutes. 2.0 mL methyl tert butyl ether (MTBE) was added to the sample, and the sample was capped, and mixed thoroughly by vortexing at high speed for 20 minutes. The sample was then centrifuged at 3300 rpm at room temperature for 10 minutes. 0.2 mL of the clear organic layer of the centrifuged sample was then transferred to a clean 96-well 2-mL plate, and the solvent was evaporated to dryness. […] The resultant reconstituted extract was analyzed by liquid chromatography mass spectrometry (LCMS).
For the LCMS, a Sciex API 4000 LC-MS-MS was equipped with an HPLC column. The peak area of the m/z 338.1→158.1 GBT440 product ion was measured against the peak area of the m/z 345.2→159.1 GBT1592 (GBT440-D7) internal standard product ion.
The whole blood samples, obtained as described above, were analyzed for pharmacokinetic parameters and RBC:Plasma ratios, as follows.
Terminal half-life and other pharmacokinetic parameters were calculated using Phoenix WinNonlin software. Apparent terminal half-life (t1/2) values were calculated as ln(2)/k, where k is the terminal elimination rate constant which is obtained by performing a linear regression on the terminal phase of a plot of the natural logarithm (ln) of concentration versus time.
RBC:Plasma ratio was calculated using the equation below. […]

[2] = Phase I study: hemolysis measures / response parameters in subjects with SCD; format: in vivo, human
Description: as §1
Other Outcome Measures: • Percentage of sickled cells under ex vivo conditions [Time Frame: 30 days] • Effect of GBT440 on hemolysis as measured by LDH, direct bilirubin, hemoglobin, and reticulocyte count [Time Frame: 30 days] • Change from baseline in pain as measured by visual analog scale [Time Frame: 30 days] • Change from baseline in fatigue as measured by questionnaire [Time Frame: 30 days] • Exercise capacity as measured by 6-minute walk test [Time Frame: 30 days]
as §2
Inclusion Criteria: • Healthy male or female of non-child bearing potential; 18 to 55 years old; are non-smokers and have not used nicotine products within 3 months prior to screening. • Male or female, 18 to 60 years old, with sickle cell disease (hemoglobin SS) not requiring chronic blood transfusion therapy; without hospitalization in 30 days before screening or receiving blood transfusion within 30 days before screening; subjects are allowed concomitant use of hydroxyurea if the dose has been stable for the 3 months prior to screening. […]

hemoglobin [3] = molecular target: T1, hemoglobin (Homo sapiens, UniProt P68871+P69905, E7V); assay: Whole blood hemoximetry (oxygen equilibrium curves, % Hb modification); format: in vivo; details: 500 mg
T1 construct: from tissue; host or cells: whole blood (red blood cells) of study subjects
Experimental: Whole blood hemoximetry was used to measure oxygen equilibration. Blood from healthy volunteers and sickle cell disease (SCD) patients was drawn into 1.8 mL sodium citrate tubes. These samples were stored overnight at 4° C. prior to hemoximetry measurements. Based upon the hematocrit of the blood, either 50 μL or 100 μL of blood was diluted into 5 mL of 37° C. TES buffer (30 mM TES, 130 mM NaCl, 5 mM KCl, pH 7.4 at 25° C.). Diluted sample were loaded into TCS Hemox Analyzer cuvettes and oxygenated for twenty minutes using compressed air. After oxygenation, the samples were deoxygenated using nitrogen gas until the pO2 reached 1.6 millimeters of mercury (mm Hg). Data during this deoxygenation step was collected into Oxygen Equilibrium Curve (OEC) files using the TCS Hemox Analytical Software (HAS). OEC files were then analyzed to obtain the p50 (the partial pressure of oxygen at which 50% of hemoglobin in a sample is saturated with O2) and the p20 (the partial pressure of oxygen at which 20% of hemoglobin in a sample is saturated with O2). Delta p20 values (p20predose−p20sample time) were then used to calculate the % Hb Modification.

sickle cells = assay: Irreversibly sickled cells counted in peripheral blood smears; format: in vivo, human
Description: To quantify irreversibly sickled cells (ISCs), six different fields were randomly selected and imaged at 40× magnification per slide. Each field contained 100 to 300 cells and >500 cells (in 3 or more fields) were counted per blood smear slide. Cells that were classically sickled shape or appeared linear (with length equal to or more than 3× the width) with irregular or pointed edges were counted as sickled. Elliptical red blood cells (also appearing linear but with length approximately twice the width) with smooth rounded edges were counted as normal. In general, isolated non-discoid cells with spiky turns were counted as sickled.
Morphological criteria for sickle cells included the following categories: (1) non-discoid irregular shaped cells with irregular or pointed edges; (2) elliptocytes with length more than twice the width and with irregular or pointed edges; and (3) irregular shaped elliptocytes.

hemoglobin [4] = molecular target: hemoglobin (Homo sapiens, UniProt P68871+P69905); details: in vitro and in vivo; cited from earlier work
[5] = 500 mg (Cohort 12), n = 10, subjects with SCD
[6] = 700 mg (Cohort 11), n = 12, subjects with SCD
[7] = 1000 mg (500 mg twice daily, Cohort 14), n = 5, subjects with SCD

## CC(C)n1nccc1-c1ncccc1COc1cccc(O)c1C=O [Compound 1, 2-hydroxy-6-((2-(1-isopropyl-1h-pyrazol-5-yl)pyridin-3-yl)methoxy)benzaldehyde]
[1]; SCD subjects
  half-life: ~38.4 h
[1]; healthy subjects
  half-life: ~72 h
[1]; single and multiple dosing
  increase in GBT440 with dose: dose proportional increase
[2]; [5]
  Hemoglobin, change from baseline to Day 28, median: 0.4 g/dL
  Lactate dehydrogenase, change from baseline to Day 28, median: −19.8%
  Reticulocytes, change from baseline to Day 28, median: −31.2%
  Unconjugated bilirubin, change from baseline to Day 28, median: −30.6%
[2]; 500 mg, 700 mg vs placebo (FIG. 4)
  change in hemoglobin over time: rapid and progressive rise in hemoglobin levels
[2]; 500 mg, 700 mg vs placebo (FIG. 5)
  percent change in reticulocytes over time: profound decline in reticulocytes
[2]; [6]
  Hemoglobin, change from baseline to Day 28, median: 0.7 g/dL
  Lactate dehydrogenase, change from baseline to Day 28, median: −11.9%
  Reticulocytes, change from baseline to Day 28, median: −37.0%
  Unconjugated bilirubin, change from baseline to Day 28, median: −42.6%
[2]; 700 mg compared to 500 mg (FIG. 4)
  hemoglobin response, higher dose level compared to lower: trend for a better response
[2]; [7]
  Hemoglobin, change from baseline to Day 28, median: 0.0 g/dL
  Lactate dehydrogenase, change from baseline to Day 28, median: −12.4%
  Reticulocytes, change from baseline to Day 28, median: −49.9%
  Unconjugated bilirubin, change from baseline to Day 28, median: −56.3%
[2]; higher GBT440 exposures, day 28 (FIG. 8)
  reticulocyte counts versus exposure: more profound reduction in reticulocyte counts
[2]; participants who achieved >20% Hb occupancy compared to those who did not
  hematologic response by Hb occupancy: improved hematologic response
Hemoglobin [3]; 700 mg (FIG. 3)
  hemoglobin modification: proportional to dose
Hemoglobin [3]; 700 mg vs placebo, SCD subjects (FIG. 3)
  shift of the oxygen equilibrium curve: left shift of the oxygen equilibrium curve
Sickle cells; [5]
  Irreversibly sickled cells, change from baseline to Day 28, median: −56.4%
Sickle cells; 500 mg, 700 mg vs placebo, 28 day dosing period (FIG. 6)
  percent sickle cells over time: reduced sickle cells in the peripheral blood
Sickle cells; [6]
  Irreversibly sickled cells, change from baseline to Day 28, median: −45.9%
Sickle cells; [7]
  Irreversibly sickled cells, change from baseline to Day 28, median: −45.7%
Sickle cells; subject treated with 700 mg, day 1 vs day 28 (FIGS. 7A-7B)
  sickle cells in peripheral blood smears: marked reduction in sickle cells

## O=Cc1ccc(CO)o1 [Compound 5HMF, 5-hydroxymethyl-2-furfuraldehyde]
Hemoglobin [4]
  hemoglobin modulation: potent hemoglobin modulator both in vitro and in vivo
